According to patent publication US6486098B1, “Herbicidal phenoxypropionic acid N-alkyl-N-2-fluorophenyl amide compounds” (Dongbu Hannong Chemical Co. Ltd., priority 1999, dated 2002):
Several values for one entry are separate records, joined by “and”; a condition that tells them apart may be missing. Equal values may be shown once.

Key:
[1] = test system: ORYSA (Rice); assay: Leaf treatment test, rice; type: in vivo, Oryza sativa L. cv. Dongjin; settings: 14 days after treatment
Experimental: (§1) Seeds of rice, wheat, barley, corn, cotton, barnyard grass, common sorgum, large crabgrass and fall panicum were seeded at a pot with a surface area of 600 cm^2. […] 14 days after the treatment, the degree of damage to the plants was rated in % damage in comparison to the development of untreated control.

[2] = test system: rice; assay: Leaf treatment test, 4 leaves, rice (Table 7); type: in vivo, Oryza sativa L. cv. Dongjin
Experimental: as §1
(§2) Among the compounds of the formula (1), herbicidal activity of the compounds in table 5 is represented in the following table 6 and 7.

[3] = test system: GOSHI (Cotton); assay: Leaf treatment test, cotton; type: in vivo, Gossypium; settings: 14 days after treatment
Experimental: as §1

[4] = test system: GLXMA (Soy bean); assay: Leaf treatment test, soy bean; type: in vivo, Glycine max (L.) MERR; settings: 14 days after treatment
[5] = test system: DIGSA (Large crabgrass); assay: Leaf treatment test, large crabgrass; type: in vivo, Digitaria Sanguinalis (L.) SCOP; settings: 14 days after treatment
Experimental: as §1

[6] = test system: PANDI (Fall panicum); assay: Leaf treatment test, fall panicum; type: in vivo, Panicum dichotomiflorum Michx; settings: 14 days after treatment
Experimental: as §1

[7] = test system: TRZAW (Wheat); assay: Leaf treatment test, wheat; type: in vivo, Triticum aestivum L.; settings: 14 days after treatment
Experimental: as §1

[8] = test system: SORBI (Common sorgum); assay: Leaf treatment test, common sorgum; type: in vivo, Andropogon sorghum; settings: 14 days after treatment
Experimental: as §1

[9] = test system: ZEAMX (Corn); assay: Leaf treatment test, corn; type: in vivo, Zea mays L.; settings: 14 days after treatment
Experimental: as §1

[10] = test system: ECHCG (Barnyard grass); assay: Leaf treatment test, barnyard grass; type: in vivo, Echinochloa crus-galli Beauv. var. caudata Kitagawa; settings: leaf treatment at three leaves, 14 days after treatment
Experimental: as §1

[11] = test system: Barnyard grass; assay: Leaf treatment test, 4 leaves, barnyard grass (Table 7); type: in vivo, Echinochloa crus-galli Beauv. var. caudata Kitagawa
Experimental: as §1, §2

[12] = test system: Rice (ORYSA); settings: 6.0˜6.5 leaves, 200 g a.i per hactare on the leaves, Tech. 98%
Experimental: Rice[Oryza sativa. L. cv. Chuchong(ORYSA)] and barnyard grass [Eclzinocgloa crus-galli beauv. var. caudate Kitagawa(ECHCG) and Ecliinocgloa crus-galli Beauv. var. orygicola Ohwi (ECHOR)] were planted and grown. The test compounds with 98% purity was dissolved in acetone containing tween-20 and diluted with water. Each maximum concentration of acetone and tween-20 were 25% and 0.1%.
The solution was sprayed in a proportion of 200 g a.i per hactare on the leaves. When rice{ORYSA} had 6.0˜6.5 leaves with 32.8 cm of the first leaf, barnyard grass(ECHOR) had 1˜2 tillering with 37.3 cm of the first leaf and barnyard grass(ECHCG) had 1˜2 tillering with 44.4 cm of the first leaf.
20 and 30 days after treatment (DAT) herbicidal effect and toxicity were measured.

[13] = test system: barnyard grass (ECHCG); assay: Experimental Example 2, herbicidal effect on barnyard grass ECHCG; type: in vivo, Eclzinocgloa crus-galli beauv. var. caudate Kitagawa; settings: 1˜2 tillering, 200 g a.i per hactare on the leaves, Tech. 98%
Excerpt: (§3) Rice[Oryza sativa. L. cv.
(§4) The result is represented in the following table 8.

[14] = test system: barnyard grass (ECHOR); assay: Experimental Example 2, herbicidal effect on barnyard grass ECHOR; type: in vivo, Ecliinocgloa crus-galli Beauv. var. orygicola Ohwi; settings: 1˜2 tillering, 200 g a.i per hactare on the leaves, Tech. 98%
Excerpt: as §3, §4

Row | Compound | degree of damage to the plants (% damage) ([1]; treated amount 0.025 kg/ha) | degree of damage to the plants (% damage) ([1]; treated amount 0.1 kg/ha) | degree of damage to the plants (% damage) ([1]; treated amount 0.4 kg/ha) | degree of damage to the plants (% damage) ([3]; treated amount 0.025 kg/ha) [%] | degree of damage to the plants (% damage) ([3]; treated amount 0.1 kg/ha) [%] | degree of damage to the plants (% damage) ([3]; treated amount 0.4 kg/ha) [%] | degree of damage to the plants (% damage) ([4]; treated amount 0.025 kg/ha) [%] | degree of damage to the plants (% damage) ([4]; treated amount 0.4 kg/ha) | degree of damage to the plants (% damage) ([5]; treated amount 0.025 kg/ha) [%] | degree of damage to the plants (% damage) ([5]; treated amount 0.1 kg/ha) [%] | degree of damage to the plants (% damage) ([5]; treated amount 0.4 kg/ha) [%] | degree of damage to the plants (% damage) ([6]; treated amount 0.025 kg/ha) | degree of damage to the plants (% damage) ([6]; treated amount 0.1 kg/ha) [%] | degree of damage to the plants (% damage) ([6]; treated amount 0.4 kg/ha) [%] | degree of damage to the plants (% damage) ([7]; treated amount 0.025 kg/ha) [%] | degree of damage to the plants (% damage) ([8]; treated amount 0.025 kg/ha) [%] | degree of damage to the plants (% damage) ([8]; treated amount 0.1 kg/ha) [%] | degree of damage to the plants (% damage) ([8]; treated amount 0.4 kg/ha) [%] | degree of damage to the plants (% damage) ([9]; treated amount 0.025 kg/ha) | degree of damage to the plants (% damage) ([9]; treated amount 0.1 kg/ha) [%] | further results
1 | CC(Oc1ccc(Oc2nc3ccc(Cl)cc3o2)cc1)C(=O)N(C)c1ccccc1F (centres unmarked) [Compound No. 1, 2-[4-(6-Chloro-2-benzoxazoyloxy)-phenoxy]propionic Acid-N-(2-fluorophenyl)-N-methylamide] | 0% | 0% | 0% | 0 | 0 | 0 | 0 | 20% | 100 | 100 | 100 | 100% | 100 | 100 | 0 | 100 | 100 | 100 | 0% | 70 | degree of damage to the plants (% damage) ([2]; treated amount 0.016 kg/ha): 0%; degree of damage to the plants (% damage) ([2]; treated amount 0.063 kg/ha): 0%; degree of damage to the plants (% damage) ([2]; treated amount 0.25 kg/ha): 0%; degree of damage to the plants (% damage) ([2]; treated amount 1.0 kg/ha): 0%; degree of damage to the plants (% damage) ([4]; treated amount 0.1 kg/ha): 0%; degree of damage to the plants (% damage) ([7]; treated amount 0.1 kg/ha): 0%; degree of damage to the plants (% damage) ([7]; treated amount 0.4 kg/ha): 0%; degree of damage to the plants (% damage) ([9]; treated amount 0.4 kg/ha): 100%; degree of damage to the plants (% damage) ([10]; treated amount 0.025 kg/ha): 90%; degree of damage to the plants (% damage) ([10]; treated amount 0.1 kg/ha): 100%; degree of damage to the plants (% damage) ([10]; treated amount 0.4 kg/ha): 100%; degree of damage to the plants (% damage) ([11]; treated amount 0.016 kg/ha): 75%; degree of damage to the plants (% damage) ([11]; treated amount 0.063 kg/ha): 100%; degree of damage to the plants (% damage) ([11]; treated amount 0.25 kg/ha): 100%; degree of damage to the plants (% damage) ([11]; treated amount 1.0 kg/ha): 100%
2 | CCOc1ccc(N(C)C(=O)C(C)Oc2ccc(Oc3nc4ccc(Cl)cc4o3)cc2)c(F)c1 (centres unmarked) [Compound No. 12] | 0% | 0% | 00% | 0 | 0 | 0 | 0 | 0% | 80 | 100 | 100 | 0% | 0 | 0 | 0 | 0 | 0 | 30 | 0% | 0 | degree of damage to the plants (% damage) ([4]; treated amount 0.1 kg/ha): 0%; degree of damage to the plants (% damage) ([7]; treated amount 0.1 kg/ha): 0%; degree of damage to the plants (% damage) ([7]; treated amount 0.4 kg/ha): 0%; degree of damage to the plants (% damage) ([9]; treated amount 0.4 kg/ha): 0%; degree of damage to the plants (% damage) ([10]; treated amount 0.025 kg/ha): 0%; degree of damage to the plants (% damage) ([10]; treated amount 0.1 kg/ha): 0%; degree of damage to the plants (% damage) ([10]; treated amount 0.4 kg/ha): 30%
3 | CC(Oc1ccc(Oc2nc3ccc(Cl)cc3o2)cc1)C(=O)Nc1ccccc1F (centres unmarked) [control 1, 2-[4-(6-Chloro-2-benzoxazoyloxy)-phenoxy]propionic Acid-N-(2-fluorophenyl)amide, reference compound] | 35% and 40% | 50% and 70% | 70% and 90% | 0 | 0 | 0 | 0 | 40% and 30% | 100 | 100 | 100 | 100% and 95% | 100 | 100 | 0 | 100 | 100 | 100 | 100% and 80% | 100 | toxicity (0˜100) 20 DAT ([12]; 20 DAT): 22; toxicity (0˜100) 30 DAT ([12]; 30 DAT): 39; activity (0˜100), 20 DAT ECHCG [13]: 100; activity (0˜100), 20 DAT ECHOR [14]: 100; degree of damage to the plants (% damage) ([9]; treated amount 0.4 kg/ha): 100%; degree of damage to the plants (% damage) ([10]; treated amount 0.025 kg/ha): 100%; degree of damage to the plants (% damage) ([10]; treated amount 0.1 kg/ha): 100%; degree of damage to the plants (% damage) ([10]; treated amount 0.4 kg/ha): 100%
4 | CCOC(=O)C(C)Oc1ccc(Oc2nc3ccc(Cl)cc3o2)cc1 (centres unmarked) [control 2, Fenoxaprop-ethyl, reference compound] |  |  |  |  |  |  |  |  |  |  |  |  |  |  |  |  |  |  |  |  | degree of damage to the plants (% damage) ([2]; treated amount 0.016 kg/ha): 20%; degree of damage to the plants (% damage) ([2]; treated amount 0.063 kg/ha): 30%; degree of damage to the plants (% damage) ([2]; treated amount 0.25 kg/ha): 70%; degree of damage to the plants (% damage) ([2]; treated amount 1.0 kg/ha): 85%; degree of damage to the plants (% damage) ([11]; treated amount 0.016 kg/ha): 95%; degree of damage to the plants (% damage) ([11]; treated amount 0.063 kg/ha): 100%; degree of damage to the plants (% damage) ([11]; treated amount 0.25 kg/ha): 100%; degree of damage to the plants (% damage) ([11]; treated amount 1.0 kg/ha): 100%
